What was measured:
[1] = target: Serine/threonine-protein kinase DCLK1 (Homo sapiens) (UniProt O15075); details: Compound concentration 1000.0 nM
[2] = target: Cyclin-dependent kinase 15 (Homo sapiens) (UniProt Q96Q40); details: Compound concentration 1000.0 nM
[3] = target: Serine/threonine-protein kinase 36 (Homo sapiens) (UniProt Q9NRP7); details: Compound concentration 1000.0 nM
[4] = target: MAP/microtubule affinity-regulating kinase 3 (Homo sapiens) (UniProt P27448); details: Compound concentration 1000.0 nM
[5] = target: Dual specificity protein kinase CLK1 (Homo sapiens) (UniProt P49759); details: Compound concentration 1000.0 nM
[6] = target: High affinity nerve growth factor receptor (Homo sapiens) (UniProt P04629); details: Compound concentration 1000.0 nM
High affinity nerve growth factor receptor (Homo sapiens), sequence (P04629 33-796 limits assumed): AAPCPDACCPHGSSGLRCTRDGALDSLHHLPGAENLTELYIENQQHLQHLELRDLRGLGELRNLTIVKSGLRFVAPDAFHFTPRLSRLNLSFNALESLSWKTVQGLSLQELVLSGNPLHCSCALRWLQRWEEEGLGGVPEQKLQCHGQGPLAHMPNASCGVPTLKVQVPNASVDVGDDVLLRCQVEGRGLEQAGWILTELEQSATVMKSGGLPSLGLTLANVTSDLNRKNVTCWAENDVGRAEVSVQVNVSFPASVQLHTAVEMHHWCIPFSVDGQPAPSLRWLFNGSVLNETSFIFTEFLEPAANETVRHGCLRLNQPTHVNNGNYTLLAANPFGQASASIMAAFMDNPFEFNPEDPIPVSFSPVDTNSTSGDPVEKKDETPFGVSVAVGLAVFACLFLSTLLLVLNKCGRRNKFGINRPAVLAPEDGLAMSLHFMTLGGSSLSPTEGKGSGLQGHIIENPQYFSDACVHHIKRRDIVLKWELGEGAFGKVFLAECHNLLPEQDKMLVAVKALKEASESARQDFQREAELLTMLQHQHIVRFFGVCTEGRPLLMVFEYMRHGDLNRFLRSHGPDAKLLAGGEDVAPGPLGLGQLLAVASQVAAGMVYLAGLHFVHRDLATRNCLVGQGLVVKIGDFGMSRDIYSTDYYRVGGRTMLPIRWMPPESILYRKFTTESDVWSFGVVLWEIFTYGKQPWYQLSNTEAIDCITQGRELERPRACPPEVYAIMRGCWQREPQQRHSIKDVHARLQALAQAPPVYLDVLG

[7] = target: Serine/threonine-protein kinase STK11 (Homo sapiens) (UniProt Q15831); details: Compound concentration 1000.0 nM
Serine/threonine-protein kinase STK11 (Homo sapiens), sequence (Q15831 whole entry): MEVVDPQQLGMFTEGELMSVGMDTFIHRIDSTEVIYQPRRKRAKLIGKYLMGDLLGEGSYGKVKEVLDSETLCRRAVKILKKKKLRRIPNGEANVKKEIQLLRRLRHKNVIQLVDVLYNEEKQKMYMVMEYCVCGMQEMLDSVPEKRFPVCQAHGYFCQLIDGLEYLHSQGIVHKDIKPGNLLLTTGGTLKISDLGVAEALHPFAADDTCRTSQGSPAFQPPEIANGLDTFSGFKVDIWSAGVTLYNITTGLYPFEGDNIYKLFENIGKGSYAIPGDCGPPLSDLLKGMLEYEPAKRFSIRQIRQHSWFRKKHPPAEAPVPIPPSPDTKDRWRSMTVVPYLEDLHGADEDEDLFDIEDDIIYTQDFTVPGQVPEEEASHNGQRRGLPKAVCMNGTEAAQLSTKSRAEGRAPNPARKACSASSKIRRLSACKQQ

[8] = tested on: Mast/stem cell growth factor receptor Kit (Homo sapiens), P10721 [V559D,V654A]; details: Compound concentration 1000.0 nM
[9] = target: Dual serine/threonine and tyrosine protein kinase (Homo sapiens) (UniProt Q6XUX3); details: Compound concentration 1000.0 nM
[10] = target: Serine/threonine-protein kinase TAO3 (Homo sapiens) (UniProt Q9H2K8); details: Compound concentration 1000.0 nM
[11] = target: Sigma intracellular receptor 2 (Homo sapiens, UniProt Q5BJF2); experiment: GPCRScan assay: inhibition of Sigma 2; design: radioligand conc. used [nm] 5.0, parental cells HEKT
Sigma intracellular receptor 2, sequence (Q5BJF2 whole entry): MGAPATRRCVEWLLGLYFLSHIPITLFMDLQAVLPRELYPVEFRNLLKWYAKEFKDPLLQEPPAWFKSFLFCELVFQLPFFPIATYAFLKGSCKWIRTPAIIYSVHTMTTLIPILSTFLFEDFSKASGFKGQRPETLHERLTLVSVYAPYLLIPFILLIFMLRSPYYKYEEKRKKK

[12] = target: Serine/threonine-protein kinase MAK (Homo sapiens) (UniProt P20794); details: Compound concentration 1000.0 nM
Serine/threonine-protein kinase MAK (Homo sapiens), sequence (P20794 whole entry): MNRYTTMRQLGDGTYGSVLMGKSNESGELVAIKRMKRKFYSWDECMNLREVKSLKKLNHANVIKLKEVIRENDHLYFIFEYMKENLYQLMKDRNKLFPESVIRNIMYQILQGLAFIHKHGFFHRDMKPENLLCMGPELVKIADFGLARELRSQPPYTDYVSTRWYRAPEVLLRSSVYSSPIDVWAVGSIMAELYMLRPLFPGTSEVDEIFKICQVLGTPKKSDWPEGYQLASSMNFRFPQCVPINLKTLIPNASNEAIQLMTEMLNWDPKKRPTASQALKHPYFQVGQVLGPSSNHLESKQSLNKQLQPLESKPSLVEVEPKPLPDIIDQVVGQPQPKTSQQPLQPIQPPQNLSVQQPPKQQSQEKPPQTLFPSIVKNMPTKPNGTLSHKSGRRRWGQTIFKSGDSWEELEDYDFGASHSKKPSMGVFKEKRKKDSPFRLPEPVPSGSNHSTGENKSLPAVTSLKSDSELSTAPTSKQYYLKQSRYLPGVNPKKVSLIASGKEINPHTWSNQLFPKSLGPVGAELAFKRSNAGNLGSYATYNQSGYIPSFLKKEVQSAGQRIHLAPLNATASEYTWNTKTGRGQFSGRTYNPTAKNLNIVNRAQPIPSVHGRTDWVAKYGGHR

[13] = target: Myosin-IIIa (Homo sapiens) (UniProt Q8NEV4); details: Compound concentration 1000.0 nM
[14] = tested on: Receptor-type tyrosine-protein kinase FLT3 (Homo sapiens), P36888 [D835V]; details: Compound concentration 1000.0 nM
[15] = target: Aurora kinase C (Homo sapiens) (UniProt Q9UQB9); details: Compound concentration 1000.0 nM
[16] = target: Dual specificity tyrosine-phosphorylation-regulated kinase 2 (Homo sapiens) (UniProt Q92630); details: Compound concentration 1000.0 nM
[17] = target: Cyclin-dependent kinase 2 homolog (Plasmodium falciparum (isolate 3D7)) (UniProt P61075); details: Compound concentration 1000.0 nM
[18] = target: 5-hydroxytryptamine receptor 6 (Homo sapiens) (UniProt P50406); details: Compound concentration 10.0 uM
[19] = tested on: Epidermal growth factor receptor (Homo sapiens), P00533 [L861Q]; details: Compound concentration 1000.0 nM
[20] = target: Serine/threonine-protein kinase PAK 1 (Homo sapiens) (UniProt Q13153); details: Compound concentration 1000.0 nM
[21] = target: Glycogen synthase kinase-3 alpha (Homo sapiens) (UniProt P49840); details: Compound concentration 1000.0 nM
[22] = tested on: Fibroblast growth factor receptor 3 (Homo sapiens), P22607 [G697C]; details: Compound concentration 1000.0 nM
[23] = target: Mitogen-activated protein kinase kinase kinase 9 (Homo sapiens) (UniProt P80192); details: Compound concentration 1000.0 nM
[24] = tested on: Receptor-type tyrosine-protein kinase FLT3 (Homo sapiens), P36888 [R834Q]; details: Compound concentration 1000.0 nM
[25] = target: Cyclin-dependent kinase 5 (Homo sapiens) (UniProt Q00535); details: Compound concentration 1000.0 nM
Cyclin-dependent kinase 5 (Homo sapiens), sequence (Q00535 whole entry, looked up): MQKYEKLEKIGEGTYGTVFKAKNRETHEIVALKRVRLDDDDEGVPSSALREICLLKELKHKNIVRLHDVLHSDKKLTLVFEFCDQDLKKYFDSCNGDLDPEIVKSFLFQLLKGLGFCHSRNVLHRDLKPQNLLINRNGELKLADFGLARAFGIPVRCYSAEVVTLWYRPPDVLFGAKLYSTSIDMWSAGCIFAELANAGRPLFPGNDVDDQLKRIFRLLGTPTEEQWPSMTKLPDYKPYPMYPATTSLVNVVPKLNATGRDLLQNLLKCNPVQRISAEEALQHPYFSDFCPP

[26] = target: Homeodomain-interacting protein kinase 3 (Homo sapiens) (UniProt Q9H422); details: Compound concentration 1000.0 nM
[27] = target: Tyrosine-protein kinase Tec (Homo sapiens) (UniProt P42680); details: Compound concentration 1000.0 nM
[28] = target: Serine/threonine-protein kinase Nek5 (Homo sapiens) (UniProt Q6P3R8); details: Compound concentration 1000.0 nM
[29] = target: Vascular endothelial growth factor receptor 1 (Homo sapiens) (UniProt P17948); details: Compound concentration 1000.0 nM
Vascular endothelial growth factor receptor 1 (Homo sapiens), sequence (P17948 whole entry): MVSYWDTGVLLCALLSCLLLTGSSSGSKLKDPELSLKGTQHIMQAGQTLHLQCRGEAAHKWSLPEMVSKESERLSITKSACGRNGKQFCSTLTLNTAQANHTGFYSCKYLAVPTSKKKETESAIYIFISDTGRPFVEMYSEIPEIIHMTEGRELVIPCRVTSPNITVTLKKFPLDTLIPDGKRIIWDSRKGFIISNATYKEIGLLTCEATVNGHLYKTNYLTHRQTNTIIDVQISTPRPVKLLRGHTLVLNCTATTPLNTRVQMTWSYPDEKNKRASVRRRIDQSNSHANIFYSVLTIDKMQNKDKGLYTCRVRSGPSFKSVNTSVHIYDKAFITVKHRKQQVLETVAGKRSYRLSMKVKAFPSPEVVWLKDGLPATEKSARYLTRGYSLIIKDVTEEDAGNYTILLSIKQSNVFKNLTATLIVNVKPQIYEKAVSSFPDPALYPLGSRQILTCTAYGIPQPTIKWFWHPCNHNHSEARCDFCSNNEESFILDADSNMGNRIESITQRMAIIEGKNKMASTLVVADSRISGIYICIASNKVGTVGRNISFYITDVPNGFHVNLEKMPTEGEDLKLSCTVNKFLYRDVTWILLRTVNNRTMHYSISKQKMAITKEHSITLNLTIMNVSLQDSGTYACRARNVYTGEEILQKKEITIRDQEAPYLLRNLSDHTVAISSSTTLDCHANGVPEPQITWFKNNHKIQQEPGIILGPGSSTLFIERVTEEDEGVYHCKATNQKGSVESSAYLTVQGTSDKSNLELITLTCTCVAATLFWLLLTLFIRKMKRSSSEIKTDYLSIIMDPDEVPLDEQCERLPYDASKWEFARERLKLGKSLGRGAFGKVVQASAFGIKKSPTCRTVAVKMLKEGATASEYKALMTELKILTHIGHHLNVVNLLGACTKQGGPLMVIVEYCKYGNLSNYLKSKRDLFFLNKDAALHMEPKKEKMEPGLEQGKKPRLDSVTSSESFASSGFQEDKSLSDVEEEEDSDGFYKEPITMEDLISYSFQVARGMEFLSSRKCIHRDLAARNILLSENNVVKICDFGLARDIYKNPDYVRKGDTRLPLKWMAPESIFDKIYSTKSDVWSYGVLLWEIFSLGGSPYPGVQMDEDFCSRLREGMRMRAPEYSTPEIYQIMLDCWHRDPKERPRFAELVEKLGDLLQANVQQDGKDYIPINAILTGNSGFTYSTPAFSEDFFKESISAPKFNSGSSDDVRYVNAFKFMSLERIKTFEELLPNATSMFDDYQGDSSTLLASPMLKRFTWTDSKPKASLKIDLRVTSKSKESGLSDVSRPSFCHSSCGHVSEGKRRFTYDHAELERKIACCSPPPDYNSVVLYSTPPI

[30] = target: 1-phosphatidylinositol 3-phosphate 5-kinase (Homo sapiens) (UniProt Q9Y2I7); details: Compound concentration 1000.0 nM
[31] = target: Serine/threonine-protein kinase MARK1 (Homo sapiens) (UniProt Q9P0L2); details: Compound concentration 1000.0 nM
[32] = tested on: Phosphatidylinositol 4,5-bisphosphate 3-kinase catalytic subunit alpha isoform (Homo sapiens), P42336 [E545A]; details: Compound concentration 1000.0 nM
[33] = target: Dual specificity mitogen-activated protein kinase kinase 2 (Homo sapiens) (UniProt P36507); details: Compound concentration 1000.0 nM
Dual specificity mitogen-activated protein kinase kinase 2 (Homo sapiens), sequence (P36507 whole entry): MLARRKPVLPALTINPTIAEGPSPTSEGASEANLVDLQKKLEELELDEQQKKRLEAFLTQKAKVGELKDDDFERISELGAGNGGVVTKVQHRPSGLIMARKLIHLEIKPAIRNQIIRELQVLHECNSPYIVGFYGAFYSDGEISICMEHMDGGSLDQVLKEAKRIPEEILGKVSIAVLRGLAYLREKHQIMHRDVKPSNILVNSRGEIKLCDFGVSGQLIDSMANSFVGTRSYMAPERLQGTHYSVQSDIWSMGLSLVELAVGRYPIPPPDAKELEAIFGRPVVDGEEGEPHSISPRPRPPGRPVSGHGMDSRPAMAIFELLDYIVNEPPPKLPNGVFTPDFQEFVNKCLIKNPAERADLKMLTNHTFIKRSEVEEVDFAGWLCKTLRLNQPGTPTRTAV

[34] = target: Serine/threonine-protein kinase 4 (Homo sapiens) (UniProt Q13043); details: Compound concentration 1000.0 nM
Serine/threonine-protein kinase 4 (Homo sapiens), sequence (Q13043 whole entry): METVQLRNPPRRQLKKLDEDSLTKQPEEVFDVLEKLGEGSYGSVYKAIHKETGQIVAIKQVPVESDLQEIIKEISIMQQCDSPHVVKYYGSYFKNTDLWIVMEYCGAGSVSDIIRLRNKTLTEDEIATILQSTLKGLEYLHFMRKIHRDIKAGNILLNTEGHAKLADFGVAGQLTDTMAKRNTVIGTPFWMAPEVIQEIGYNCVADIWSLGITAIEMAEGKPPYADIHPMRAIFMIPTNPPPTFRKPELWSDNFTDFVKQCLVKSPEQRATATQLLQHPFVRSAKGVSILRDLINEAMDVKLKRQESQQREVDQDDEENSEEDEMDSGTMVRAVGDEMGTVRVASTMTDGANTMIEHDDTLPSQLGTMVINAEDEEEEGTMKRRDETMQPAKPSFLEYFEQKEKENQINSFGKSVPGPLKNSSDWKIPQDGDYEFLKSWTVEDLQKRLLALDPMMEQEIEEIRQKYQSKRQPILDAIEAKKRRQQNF

[35] = target: Serine/threonine-protein kinase tousled-like 2 (Homo sapiens) (UniProt Q86UE8); details: Compound concentration 1000.0 nM
[36] = target: Rhodopsin kinase GRK7 (Homo sapiens) (UniProt Q8WTQ7); details: Compound concentration 1000.0 nM
[37] = target: GABA-A receptor; anion channel (Rattus norvegicus) (UniProt O09028+P15431+P18506+P18508+P19969+P20236+P23574+P23576+P28471+P28473+P30191+P62813+P63079+P63138+Q91ZM7+Q9ES14); details: Compound concentration 10.0 uM
[38] = target: Tyrosine-protein kinase Fyn (Homo sapiens) (UniProt P06241); details: Compound concentration 1000.0 nM
D(1A) dopamine receptor = D(1A) dopamine receptor (Homo sapiens, UniProt P21728); details: Compound concentration 10.0 uM
[39] = tested on: Mast/stem cell growth factor receptor Kit (Homo sapiens), P10721 [V559D]; details: Compound concentration 1000.0 nM
[40] = tested on: Phosphatidylinositol 4,5-bisphosphate 3-kinase catalytic subunit alpha isoform (Homo sapiens), P42336 [E542K]; details: Compound concentration 1000.0 nM
[41] = target: Mitogen-activated protein kinase kinase kinase 13 (Homo sapiens) (UniProt O43283); details: Compound concentration 1000.0 nM
[42] = target: Serine/threonine-protein kinase LATS2 (Homo sapiens) (UniProt Q9NRM7); details: Compound concentration 1000.0 nM
[43] = target: Calcium/calmodulin-dependent protein kinase kinase 2 (Homo sapiens) (UniProt Q96RR4); details: Compound concentration 1000.0 nM

Cyclin-dependent kinase 15 (Homo sapiens), sequence (Q96Q40 whole entry): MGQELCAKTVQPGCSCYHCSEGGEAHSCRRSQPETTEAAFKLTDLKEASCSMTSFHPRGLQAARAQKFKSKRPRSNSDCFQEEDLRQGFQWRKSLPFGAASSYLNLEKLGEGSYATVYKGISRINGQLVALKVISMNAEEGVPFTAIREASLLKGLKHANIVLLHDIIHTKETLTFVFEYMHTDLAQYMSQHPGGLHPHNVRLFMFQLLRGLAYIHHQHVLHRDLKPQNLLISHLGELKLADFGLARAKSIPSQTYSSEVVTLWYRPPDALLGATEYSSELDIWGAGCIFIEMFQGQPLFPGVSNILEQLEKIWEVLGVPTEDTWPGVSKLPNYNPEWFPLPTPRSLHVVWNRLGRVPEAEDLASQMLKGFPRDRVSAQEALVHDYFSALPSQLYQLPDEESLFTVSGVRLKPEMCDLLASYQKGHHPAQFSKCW

Q: What does the source list for O=C(O)c1cc(-c2ccc(C3CCNCC3)cc2)c2ccc(-c3ccc(C(F)(F)F)cc3)cc2c1 [PPTN]?
A: residual activity [1]: 84%; residual activity [2]: 96%; residual activity [3]: 100%; residual activity [4]: 100%; residual activity [5]: 100%; residual activity [6]: 100%; residual activity [7]: 100%; residual activity [8]: 100%; residual activity [9]: 100%; residual activity [10]: 100%; Ki [11]: 1.12 µM; residual activity [12]: 100%; residual activity [13]: 100%; residual activity [14]: 100%; residual activity [15]: 95%; residual activity [16]: 100%; residual activity [17]: 100%; inhibition [18]: 5.62%; residual activity [19]: 100%; residual activity [20]: 100%; residual activity [21]: 99%; residual activity [22]: 100%; residual activity [23]: 100%; residual activity [24]: 100%; residual activity [25]: 100%; residual activity [26]: 100%; residual activity [27]: 100%; residual activity [28]: 100%; residual activity [29]: 86%; residual activity [30]: 100%; residual activity [31]: 100%; residual activity [32]: 87%; residual activity [33]: 90%; residual activity [34]: 98%; residual activity [35]: 100%; residual activity [36]: 85%; inhibition [37]: -3.62%; residual activity [38]: 100%; inhibition (D(1A) dopamine receptor): 71.4%; residual activity [39]: 100%; residual activity [40]: 100%; residual activity [41]: 100%; residual activity [42]: 100%; residual activity [43]: 100%

Q: For Cc1c(C(=O)O)cc(-c2ccc(C3CCNCC3)cc2)c2ccc(-c3ccc(C(F)(F)F)cc3)cc12 [PPTN-NC], which residual activity [1] is on record?
A: 81%

Q: What about the residual activity [2] of the same compound?
A: 100%

Q: And the residual activity [3]?
A: 86%

Q: And the residual activity [4]?
A: 100%

Q: And the residual activity [5]?
A: 100%

Q: What about the residual activity [6] of the same compound?
A: 100%

Q: What about the residual activity [7] of the same compound?
A: 94%

Q: What about the residual activity [8] of the same compound?
A: 100%

Q: What about the residual activity [9] of the same compound?
A: 100%

Q: What about the residual activity [10] of the same compound?
A: 100%

Q: What about the Ki [11] of the same compound?
A: 1.7 µM

Q: And the residual activity [12]?
A: 91%

Q: What about the residual activity [13] of the same compound?
A: 100%

Q: What about the residual activity [14] of the same compound?
A: 100%

Q: What about the residual activity [15] of the same compound?
A: 92%

Q: And the residual activity [16]?
A: 100%

Q: What about the residual activity [17] of the same compound?
A: 100%

Q: What about the inhibition [18] of the same compound?
A: 13.5%

Q: And the residual activity [19]?
A: 100%

Q: And the residual activity [20]?
A: 100%

Q: And the residual activity [21]?
A: 100%

Q: What about the residual activity [22] of the same compound?
A: 100%

Q: What about the residual activity [23] of the same compound?
A: 92%

Q: What about the residual activity [24] of the same compound?
A: 100%

Q: What about the residual activity [25] of the same compound?
A: 100%

Q: And the residual activity [26]?
A: 100%

Q: And the residual activity [27]?
A: 100%

Q: And the residual activity [28]?
A: 100%

Q: What about the residual activity [29] of the same compound?
A: 80%

Q: What about the residual activity [30] of the same compound?
A: 100%

Q: What about the residual activity [31] of the same compound?
A: 100%

Q: What about the residual activity [32] of the same compound?
A: 100%

Q: And the residual activity [33]?
A: 100%

Q: And the residual activity [34]?
A: 95%

Q: What about the residual activity [35] of the same compound?
A: 100%

Q: And the residual activity [36]?
A: 91%

Q: And the inhibition [37]?
A: 10.6%

Q: What about the residual activity [38] of the same compound?
A: 100%

Q: And the inhibition (D(1A) dopamine receptor)?
A: 61.4%

Q: What about the residual activity [39] of the same compound?
A: 100%

Q: And the residual activity [40]?
A: 99%

Q: What about the residual activity [41] of the same compound?
A: 100%

Q: What about the residual activity [42] of the same compound?
A: 100%

Q: What about the residual activity [43] of the same compound?
A: 100%

From ChEMBL document CHEMBL4507292 (2021)
